Results taken from patent publication US20250144054A1, “SMALL MOLECULE STAT3 INHIBITOR FOR TREATING TRIPLE NEGATIVE BREAST CANCER” (UNIVERSITY OF MARYLAND, BALTIMORE, priority 2022, published 2025).

What was measured:
Type in all cases: cell-based, human
[1] = tested on: STAT3; test: IL-6 induced STAT3 phosphorylation, Western blot, T47D cells; settings: pretreated 2 hours serum-free, 50 ng/ml IL-6 30 minutes
Procedure: (§1) (A) The chemical structures of LLL12B and LLL12. The carbamate ester bond of LLL12B is hydrolytically cleaved by the tumor-associated plasmin to release LLL12. (B) SUM159 cells were seeded in a 6-well plate and treated with LLL12B for 8 hours. Cells were stained with Phospho-Stat3 (Tyr705) and DAPI (indicated by arrows). Green: P-STAT3 (Y705); Blue: DAPI. T47D (C) and MDA-MB-231 (D) breast cancer cells were pretreated with DMSO or LLL12B in a serum-free medium for 2 hours and stimulated with 50 ng/ml of IL-6, IFN-γ, or EGF for additional 30 minutes. Cells were collected and analyzed by Western blot. GAPDH served as a protein loading control.
(§2) Western blot. Cells were collected and total protein was extracted using cell lysis buffer (Cell Signaling Technology, Danvers, MA, USA). Protein concentration was determined using the Pierce BCA Protein Assay Kit (Thermo Fisher Scientific, Waltham, MA, USA) according to the manufacturer's instructions. Equal amounts of protein were separated by 10% SDS-PAGE gels and transferred to PVDF membranes. Membranes were blocked in 5% non-fat milk at room temperature and probed with specific antibodies P-STAT3 (Y705), STAT3, Cyclin D1, Cleaved Caspase-3, P-STAT1 (Y701), STAT1, P-ERK, ERK or GAPDH (1:1000, Cell Signaling Technology, Danvers, MA, USA) at 4° C. overnight. […]

[2] = tested on: ERK; test: EGF induced ERK phosphorylation, Western blot, T47D cells; settings: pretreated 2 hours, 50 ng/ml EGF 30 minutes
Procedure: as §1, §2

[3] = tested on: SUM159 cells; test: Annexin V and PI flow cytometry, SUM159 cells; settings: SUM159, 8-12 hours, vs DMSO
Procedure: Flow cytometry analysis. Flow cytometry was performed to detect cell apoptosis. The APC Annexin V Apoptosis Detection Kit (Biolegend, San Diego, CA, USA) was used for Annexin V staining. Cells were seeded in a 35 mm culture dish at a density of 1×10^5 cells/dish. After overnight incubation, cells were treated with DMSO or LLL12B for 8-12 hours. Cells were harvested and stained with Annexin V-APC and propidium iodide (PI) according to the manufacturer's instructions. After staining, cells were counted using a FACSCanto II flow cytometer (BD Biosciences, San Jose, CA, USA).

CN(C)C(=O)Oc1cccc2c1C(=O)c1cccc(S(N)(=O)=O)c1C2=O [LLL12B]
IL-6 induced phosphorylation of STAT3 (Y705) [1]: inhibited
induction of P-ERK stimulated by EGF [2]: did not inhibit
percentage of apoptotic cells [3]: significantly increased
